Tests used:
Type in all cases: cell-based
[1] = test system: Daudi; assay: CellTiter-Glo cell viability, Daudi
Protocol: (§1) The 50% inhibitory concentration (IC50) was determined in the cancer cell lines using CellTiter-Glo luminescent cell viability assay after incubation with different concentrations of active agents. Each cell line was treated with active Zn(II) agent, a standard chemotherapy drug as reference control, and culture medium as vehicle control. Cell Lines. All cell lines were cultured in media supplemented with 10-15% FBS, at a temperature of 37° C., 5% CO2, and 95% humidity. The reference control drug for all cell lines was cisplatin, to be used for genomic analysis. The cell lines tested, the tissue of origin are shown below in Table 1: Procedure for Determining Half Maximal Inhibition Concentration IC50 • 1. Harvested cells during the logarithmic growth period and count cell number using Count-star. • 2. Adjusted cell concentrations to 4.44×10^4 cells/mL with respective culture medium. • 3. Added 90 μL cell suspensions to two 96-well plates (plates A and B) with the final cell density of 4×10^3 cells/well. (cell concentration was adjusted according to the data base or density optimization assay.) • 4a. Next day: For the plates of TO reading: • 1) Added 10 μL culture medium to each well of plate A for TO reading. • 2) Equilibrated the plate and its content at RT for approximately 30 min. • 3) Added 50 μL CellTiter-Glo reagent to each well. • 4) Mixed content for 5 min on an orbital shaker to induce cell lysis. • 5) Allowed the plate to incubate at RT for 20 min to stabilize luminescent signal. • 6) Recorded luminescence (TO) using EnVision Multi Label Reader. • 4b. For the plates of test reading: • 1) Prepared 10× solution of Zn(II) agent test article. […] The formula for calculating surviving rate is shown below and the absolute IC50 (EC50) was calculated according to the dose-response curve generated by GraphPad Prism 5.0. • 12) The surviving rate (%)=(LumTest article−LumMedium control)/(LumNon-treated−LumMedium control)×100%.

[2] = test system: Ramos; assay: CellTiter-Glo cell viability, Ramos
Protocol: as §1

[3] = test system: OCI-LY-19; assay: CellTiter-Glo cell viability, OCI-LY-19
Protocol: as §1

[4] = test system: HeLa; assay: CellTiter-Glo cell viability, HeLa
Protocol: The 50% inhibitory concentration (IC50) was determined in the cancer cell lines using CellTiter-Glo luminescent cell viability assay after incubation with different concentrations of active agents. Each cell line was treated with active Zn(II) agent, a standard chemotherapy drug as reference control, and culture medium as vehicle control. Cell Lines. All cell lines were cultured in media supplemented with 10-15% FBS, at a temperature of 37° C., 5% CO2, and 95% humidity. The reference control drug for all cell lines was cisplatin, to be used for genomic analysis. The cell lines tested, the tissue of origin are shown below in Table 1: Procedure for Determining Half Maximal Inhibition Concentration IC50 • 1. Harvested cells during the logarithmic growth period and count cell number using Count-star. • 2. Adjusted cell concentrations to 4.44×10^4 cells/mL with respective culture medium. • 3. Added 90 μL cell suspensions to two 96-well plates (plates A and B) with the final cell density of 4×10^3 cells/well. (cell concentration was adjusted according to the data base or density optimization assay.) • 4a. […]

[5] = test system: NCI-H929; assay: CellTiter-Glo cell viability, NCI-H929
Protocol: as §1

[6] = test system: EOL-1; assay: CellTiter-Glo cell viability, EOL-1
Protocol: as §1

[7] = test system: Hep3B; assay: CellTiter-Glo cell viability, Hep3B
Protocol: as §1

[8] = test system: Jurkat clone E6-1; assay: CellTiter-Glo cell viability, Jurkat clone E6-1
Protocol: as §1

[9] = test system: WSU-NHL; assay: CellTiter-Glo cell viability, WSU-NHL
Protocol: as §1

[10] = 96 h, top conc. 50 μg/mL Zn(II) agent, 100 μM cisplatin

For `N.N.[Cl][Pt][Cl]` [Cisplatin], the “Absolute IC50” value ([1]; 96 h, CellTiter-Glo) was 0.11 µg/mL, the “% inhibition at top conc.” value [1, 10] was 99.86% and the HillSlope ([1]; 96 h dose-response fit) was −1.59. For the same compound, the “Absolute IC50” value ([2]; 96 h, CellTiter-Glo) was 0.17 µg/mL, the “% inhibition at top conc.” value [2, 10] was 99.99% and the HillSlope ([2]; 96 h dose-response fit) was −2.13. The “Absolute IC50” value ([3]; 96 h, CellTiter-Glo) was 0.04 µg/mL, the “% inhibition at top conc.” value [3, 10] was 99.99% and the HillSlope ([3]; 96 h dose-response fit) was −2.61. The “% inhibition at top conc.” value [4, 10] was 99.91%, the HillSlope ([4]; 96 h dose-response fit) was −1.70 and the “Absolute IC50” value ([5]; 96 h, CellTiter-Glo) was 0.64 µg/mL. The “% inhibition at top conc.” value [5, 10] was 99.98%, the HillSlope ([5]; 96 h dose-response fit) was −1.83 and the “Absolute IC50” value ([6]; 96 h, CellTiter-Glo) was 0.16 µg/mL. For the same compound, the “% inhibition at top conc.” value [6, 10] was 99.99%, the HillSlope ([6]; 96 h dose-response fit) was −1.87 and the “Absolute IC50” value ([7]; 96 h, CellTiter-Glo) was 0.78 µg/mL. The “% inhibition at top conc.” value [7, 10] was 99.58%, the HillSlope ([7]; 96 h dose-response fit) was −1.50 and the “Absolute IC50” value ([8]; 96 h, CellTiter-Glo) was 0.17 µg/mL. For the same compound, the “% inhibition at top conc.” value [8, 10] was 99.99%, the HillSlope ([8]; 96 h dose-response fit) was −2.37 and the “Absolute IC50” value ([9]; 96 h, CellTiter-Glo) was 0.06 µg/mL. The “% inhibition at top conc.” value [9, 10] was 99.99% and the HillSlope ([9]; 96 h dose-response fit) was −1.77.
